Laboratory results published in patent US9403866B2, “Compositions and methods for increasing telomerase activity” (Telomerase Activation Sciences, Inc., priority 2009, dated 2016).

Tested on: wild-type mouse lineage-depleted bone marrow cells
Experiment: Colony formation assay of wild-type mouse lineage-depleted bone marrow cells
Type: cell-based
Conditions: 12 days
Experimental: Mouse bone marrow-derived lineage-depleted cells (enriched for hematopoietic stem and progenitor cells but not a pure population) were obtained. Wild-type mouse lineage-depleted bone marrow cells from two separate mice were plated into a standard colony formation assay in the presence of compound 4 (100 nM and 500 nM), vehicle (0.1% DMSO), or nothing. After 12 days, hematopoietic colonies were enumerated (BFU-E, CFU-GM, and CFU-GEMM).

Question: Which BFU-E colonies (Mouse 1, 100 nM) does the source give for CC(C)C(N)C(=O)OC1CCC23CC24CCC2(C)C(C5(C)CCC(C(C)(C)O)O5)C(O)CC2(C)C4CC(O)C3C1(C)C (stereo not drawn) [Compound 4, 2-(L)-Amino-3-methyl-butyric acid 6α,16β-dihydroxy-17-[5-(1-hydroxy-1-methyl-ethyl)-2-methyl-tetrahydro-furan-2-yl]-4,4,13,14-tetramethyl-tetradecahydro-cyclopropa[9,10]cyclopenta[a]phenanthren-3β-yl ester] here?
Answer: The BFU-E colonies was 50.

Question: And the CFU-GEMM colonies (Mouse 1, 100 nM)?
Answer: Its CFU-GEMM colonies is 0.

Question: And the CFU-GM colonies (Mouse 1, 100 nM)?
Answer: The CFU-GM colonies was 111.

Question: And the Total colony counts (Mouse 1, 100 nM)?
Answer: The Total colony counts was 161.

Question: And the BFU-E colonies (Mouse 1, 500 nM)?
Answer: The BFU-E colonies was 38.

Question: And the CFU-GEMM colonies (Mouse 1, 500 nM)?
Answer: The CFU-GEMM colonies was 1.

Question: What about the CFU-GM colonies (Mouse 1, 500 nM) of the same compound?
Answer: The CFU-GM colonies was 124.

Question: What about the Total colony counts (Mouse 1, 500 nM) of the same compound?
Answer: Its Total colony counts is 162.

Question: What about the BFU-E colonies (Mouse 2, 100 nM) of the same compound?
Answer: Its BFU-E colonies is 31.

Question: And the CFU-GEMM colonies (Mouse 2, 100 nM)?
Answer: The CFU-GEMM colonies was 1.

Question: What about the CFU-GM colonies (Mouse 2, 100 nM) of the same compound?
Answer: The CFU-GM colonies was 90.

Question: And the Total colony counts (Mouse 2, 100 nM)?
Answer: Its Total colony counts is 121.

Question: What about the BFU-E colonies (Mouse 2, 500 nM) of the same compound?
Answer: Its BFU-E colonies is 29.

Question: And the CFU-GEMM colonies (Mouse 2, 500 nM)?
Answer: The CFU-GEMM colonies was 2.

Question: What about the CFU-GM colonies (Mouse 2, 500 nM) of the same compound?
Answer: The CFU-GM colonies was 98.

Question: What about the Total colony counts (Mouse 2, 500 nM) of the same compound?
Answer: The Total colony counts was 129.
